Assay [1] concerns the target ROCK-I (h, amino acids 17-535) (Homo sapiens (Human), UniProt Q13464). Nature of the assay: ROCK-I (h) inhibition assay. In kind it is biochemical. The note with it: radiometric [γ-32P-ATP] filter assay, 40 minutes at room temperature; read-out: ROCK1 IC50. The procedure: ROCK-I (h) Inhibition Assay:
In a final reaction volume of 25 μL, ROCK-I (h, amino acids 17-535) (5-10 mU) was incubated with 8 mM MOPS pH 7.0, 0.2 mM EDTA, 30 μM […], 10 mM magnesium acetate and [γ-^32P-ATP] (specific activity approx. 500 cpm/pmol, concentration as required). The reaction was initiated by the addition of the MgATP mix. After incubation for 40 minutes at room temperature, the reaction was stopped by the addition of 5 μL of a 3% phosphoric acid solution. 10 μL of the reaction was then spotted onto a P30 filtermat and washed three times for 5 minutes in 75 mM phosphoric acid and once in methanol prior to drying and scintillation counting.

Assay [2] concerns the target ROCK-II (h, amino acids 11-552) (Homo sapiens (Human), UniProt O75116). As to the kind of experiment: ROCK-II (h) inhibition assay. In kind it is biochemical. The note with it: radiometric [γ-32P-ATP] filter assay, 40 minutes at room temperature; read-out: ROCK2 IC50. How it is done:
ROCK-II (h) Inhibition Assay:
In a final reaction volume of 25 μL, ROCK-II (h, amino acids 11-552) (5-10 mU) was incubated with 50 mM Tris pH 7.5, 0.1 mM EGTA, 30 μM […], 10 mM magnesium acetate and [γ-^32P-ATP] (specific activity approx. 500 cpm/pmol, concentration as required). The reaction was initiated by the addition of the MgATP mix. After incubation for 40 minutes at room temperature, the reaction was stopped by the addition of 5 μL of a 3% phosphoric acid solution. 10 μL of the reaction was then spotted onto a P30 filter-mat and washed three times for 5 minutes in 75 mM phosphoric acid and once in methanol prior to drying and scintillation counting.

Sequence of ROCK-II (h, amino acids 11-552) (O75116 11-552): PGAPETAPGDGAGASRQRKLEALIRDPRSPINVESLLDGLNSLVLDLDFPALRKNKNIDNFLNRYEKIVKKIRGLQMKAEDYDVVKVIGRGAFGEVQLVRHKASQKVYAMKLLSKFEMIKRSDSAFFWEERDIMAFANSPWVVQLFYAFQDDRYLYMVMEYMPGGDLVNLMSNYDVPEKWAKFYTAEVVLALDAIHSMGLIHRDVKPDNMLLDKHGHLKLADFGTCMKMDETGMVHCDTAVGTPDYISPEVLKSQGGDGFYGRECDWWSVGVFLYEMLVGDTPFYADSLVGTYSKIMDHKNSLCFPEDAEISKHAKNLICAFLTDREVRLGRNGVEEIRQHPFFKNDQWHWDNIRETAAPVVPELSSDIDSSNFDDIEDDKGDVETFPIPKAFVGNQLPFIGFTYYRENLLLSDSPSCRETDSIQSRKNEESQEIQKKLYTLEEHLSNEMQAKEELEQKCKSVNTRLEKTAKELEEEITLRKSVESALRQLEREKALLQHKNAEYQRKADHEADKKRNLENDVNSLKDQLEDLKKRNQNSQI
Sequence of ROCK-I (h, amino acids 17-535) (Q13464 17-535): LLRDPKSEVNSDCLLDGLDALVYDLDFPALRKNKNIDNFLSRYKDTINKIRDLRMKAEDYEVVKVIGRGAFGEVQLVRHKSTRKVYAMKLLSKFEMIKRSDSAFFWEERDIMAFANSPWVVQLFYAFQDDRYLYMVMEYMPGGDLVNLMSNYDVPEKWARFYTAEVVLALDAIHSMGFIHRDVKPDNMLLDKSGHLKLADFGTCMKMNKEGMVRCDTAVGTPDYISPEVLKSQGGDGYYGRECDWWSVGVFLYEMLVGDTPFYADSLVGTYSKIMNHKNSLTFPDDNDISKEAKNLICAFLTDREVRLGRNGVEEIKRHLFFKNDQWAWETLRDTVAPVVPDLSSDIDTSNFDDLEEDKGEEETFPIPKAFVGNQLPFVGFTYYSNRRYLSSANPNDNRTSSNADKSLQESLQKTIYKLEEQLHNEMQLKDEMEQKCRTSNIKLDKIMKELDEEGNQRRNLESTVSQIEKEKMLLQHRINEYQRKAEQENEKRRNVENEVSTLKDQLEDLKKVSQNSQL

Consider `CN1C(=O)[C@@H](Cc2ccc(-c3ccncc3)cc2)NC(=O)c2ccc(Cl)cc21` [Compound 4, (R)-8-chloro-1-methyl-3-(4-(pyridin-4-yl)benzyl)-3,4-dihydro-1H-benzo[e][1,4]diazepine-2,5-dione], for which the IC50 in assay [1] was more than 10000 nM; in assay [2] it was 800 nM.

With `CN1C(=O)[C@@H](Cc2ccc(-c3ccncc3)cc2)NC(=O)c2cccc(Cl)c21` [Compound 5, (R)-9-chloro-1-methyl-3-(4-(pyridin-4-yl)benzyl)-3,4-dihydro-1H-benzo[e][1,4]diazepine-2,5-dione], the IC50 in assay [1] is more than 10000 nM.

With `CN1C(=O)[C@@H](Cc2ccc(-c3ccncc3)cc2)NC(=O)c2cc(Cl)ccc21` [Compound 1, (R)-7-chloro-1-methyl-3-(4-(pyridin-4-yl)benzyl)-3,4-dihydro-1H-benzo[e][1,4]diazepine-2,5-dione], the half-maximal inhibitory concentration (IC50) is more than 30000 nM in assay [1] and 1100 nM in assay [2].

For `CN1C(=O)[C@@H](Cc2ccc(-c3ccncc3)cc2)NC(=O)c2c(Cl)cccc21` [Compound 3, (R)-6-chloro-1-methyl-3-(4-(pyridin-4-yl)benzyl)-3,4-dihydro-1H-benzo[e][1,4]diazepine-2,5-dione], the figures for the concentration for half-maximal inhibition (IC50) in assay [1] and in assay [2] were more than 30000 nM and 860 nM, respectively.

Take `C[C@@]1(Cc2ccc(-c3ccncc3)cc2)NC(=O)c2cc(Cl)ccc2NC1=O` [Compound 2, (S)-7-chloro-3-methyl-3-(4-(pyridin-4-yl)benzyl)-3,4-dihydro-1H-benzo[e][1,4]diazepine-2,5-dione]: the IC50 in assay [1] is more than 10000 nM.

These data come from patent US9126978B2, “1,4-benzodiazepine-2,5-diones and related compounds with therapeutic properties” (The Regents of the University of Michigan, priority 2009, dated 2015).
